Literature values, collected in patent US20210352892A1, “MACROMOLECULAR AND NONPARTICULATE AGROCHEMICALS TO REDUCE VAPOR DRIFT” (University of Utah Research Foundation, priority 2019, published 2021).

Settings: at 25 ° C.

## COc1c(Cl)ccc(Cl)c1C(=O)O [dicamba, 2-methoxy-3,6-dicholorobenzoic acid]
  vapor pressure: 4.5 mPa
